Values quoted from earlier work, collected in PMC11901578, “Polymethoxyflavones and Bone Metabolism” (Nutrients, 2025).
Where two headings read alike, the source gives them in different places.

Key:
[1] = test system: osteoclast differentiation in co-cultures of osteoblasts and bone marrow cells; conditions: cited from earlier work; for IC50: IL-1 +, read-out: IC50, osteoclast differentiation in co-culture system; for inhibitory effect on IL-1-induced osteoclast differentiation relative to nobiletin and tangeretin, respectively: TRAP-positive osteoclasts
Raw264.7 = conditions: RANKL +, cited from earlier work; for IC50: read-out: IC50, osteoclast differentiation in Raw264.7 cultures
HL-60 cells = test system: HL-60 cells; design: method as in PMID 23225422; conditions: read-out: IC50, anti-proliferative effect on HL-60 cells; cited from earlier work
[2] = test system: bone resorption in mouse calvarial or alveolar bone organ cultures; conditions: 30 μM, mouse calvarial or alveolar bone organ cultures; cited from earlier work
[3] = test system: IL-1β mRNA expression in the hippocampus; design: method as in PMID 25884208; conditions: mice, subcutaneous 100 mg/kg; cited from earlier work
serum TNF-α levels = test system: serum TNF-α levels; design: method as in PMID 18816060; conditions: rats, intraperitoneal 100 mg/kg; cited from earlier work
[4] = test system: human umbilical vein endothelial cells (HUVECs); design: method as in PMID 22707269; conditions: read-out: IC50, anti-proliferative effect on HUVECs; cited from earlier work
zebrafish embryos = test system: zebrafish embryos; design: method as in PMID 22707269; conditions: 30 μM, cited from earlier work
[5] = test system: BTB and CNC homology 1 (BACH1); design: method as in PMID 38734708; conditions: cited from earlier work
[6] = test system: periodontal ligament cells; design: method as in PMID 38734708; conditions: 2.5, 5, and 10 μM; cited from earlier work
[7] = test system: rats with ligature-induced periodontitis; design: method as in PMID 38734708; conditions: oral 5, 10, and 20 mg/kg/day for 3 weeks; cited from earlier work
DMM-OA mice = conditions: DMM-OA mice, oral 50 mg/kg/day for 8 weeks; cited from earlier work
[8] = test system: human periodontal ligament cells (HPDLCs); conditions: TNF-α, human periodontal ligament cells; cited from earlier work
[9] = test system: bone marrow macrophage (BMM) cultures; conditions: 2, 10, and 50 μM; cited from earlier work
[10] = test system: osteoclast differentiation; design: method as in PMID 26044862; conditions: 20 μM, compared to 20 μM laricitrin and 20 μM myricetin; cited from earlier work
[11] = test system: rheumatoid synovial fibroblasts (RASFs); design: method as in doi:10.3329/bjp.v10i3.22865; conditions: 50 and 100 μM; cited from earlier work
CIA rats = test system: CIA rats; design: method as in PMID 31344704; conditions: daily oral administration for 14 days; cited from earlier work
[12] = test system: alveolar bone loss in mice; conditions: LPS +, cited from earlier work
[13] = test system: osteoclast differentiation; design: method as in PMID 22850615; conditions: 30 μM; cited from earlier work
[14] = test system: osteoclast differentiation in co-culture system; conditions: LPS +, 30 μM; cited from earlier work

COc1cc(-c2cc(=O)c3c(OC)c(OC)c(OC)c(OC)c3o2)ccc1O [4′-Demethylnobiletin, 4′-Hydroxy-3′,5,6,7,8-Pentamethoxyflavone]
IC50 [1]: 13 µM
inhibitory effect on IL-1-induced osteoclast differentiation relative to nobiletin and tangeretin, respectively [1]: potent inhibitory effects
IC50 (Raw264.7): 1 µM

COc1c(OC)c(OC)c2c(=O)cc(-c3ccc(O)cc3)oc2c1OC [4′-Demethyltangeretin, 4′-Hydroxy-5,6,7,8-Tetramethoxyflavone]
IC50 [1]: 18 µM
inhibitory effect on IL-1-induced osteoclast differentiation relative to nobiletin and tangeretin, respectively [1]: potent inhibitory effects
IC50 (Raw264.7): 7 µM

COc1ccc(-c2oc3c(OC)c(OC)c(OC)c(OC)c3c(=O)c2OC)cc1OC [Heptamethoxyflavone, 3,3′,4′,5,6,7,8,-Heptamethoxyflavone]
IC50 (HL-60 cells): 63 µM
inhibition of LPS-induced bone resorption [2]: > 90%
IL-1β mRNA expression in the hippocampus [3]: downregulates
serum TNF-α levels (serum TNF-α levels): reduced serum TNF-α levels

COc1ccc([C@@H]2CC(=O)c3c(O)cc(O)cc3O2)cc1O [Hesperetin, reference compound]
IC50 [4]: > 100 µM
anti-angiogenic effect on zebrafish embryos, inhibited (zebrafish embryos; listed as hesperitin): ~30%
anti-angiogenic effect on zebrafish embryos, inhibited (zebrafish embryos): 30% inhibited [47]

COc1ccc(-c2oc3c(OC)c(OC)c(OC)c(OC)c3c(=O)c2O)cc1OC [Natsudaidain, 3′,4′,5,6,7,8-Hexamethoxy-3-hydroxyflavone]
IC50 (HL-60 cells): 5 µM

COc1ccc(-c2cc(=O)c3c(OC)c(OC)c(OC)cc3o2)cc1 [Scutellarein tetra-methylether]
IC50 [4]: > 100 µM

O=c1cc(-c2ccc(O)cc2)oc2cc(O)c(O)c(O)c12 [Scutellarein]
IC50 [4]: > 100 µM

COc1ccc(-c2cc(=O)c3c(OC)c(OC)c(OC)cc3o2)cc1OC [Sinensetin, 3′,4′,5,6,7-Pentamethoxyflavone]
binding to BACH1 [5]: directly binds
oxidative stress and inflammation [6]: dose-dependently reduced
IC50 (HL-60 cells): > 400 µM
IC50 [4]: 24 µM
alveolar bone resorption [7]: suppressed alveolar bone resorption
anti-angiogenic effect on zebrafish embryos, inhibited (zebrafish embryos; listed as sinensetin): approximately 95%
anti-angiogenic effect on zebrafish embryos, inhibited (zebrafish embryos): 95% inhibited [47]
disease progression (DMM-OA mice): protects against disease progression

COc1cc(-c2cc(=O)c3c(O)c(OC)c(O)c(OC)c3o2)ccc1O [Sudachitin, 4′,5,7-Trihydroxy-3′,6,8-trimethoxyflavone]
production of MMP-1 and MMP-3 [8]: reduced the production
RANKL-induced osteoclast differentiation [9]: dose-dependently suppressed

COc1cc(-c2oc3cc(O)cc(O)c3c(=O)c2O)cc(OC)c1O [Syringetin, 3,4′,5,7-Tetrahydroxy-3′,5′-dimethoxyflavone]
inhibitory effect on M-CSF-/RANKL-induced osteoclast differentiation [10]: strongest inhibitory effect

COc1ccc(-c2cc(=O)c3c(OC)c(OC)c(OC)c(OC)c3o2)cc1 [Tangeretin, 4′,5,6,7,8-Pentamethoxyflavone]
proliferation of rheumatoid synovial fibroblasts (RASFs) [11]: significantly inhibits
oxidative stress and inflammation (CIA rats): reduced oxidative stress and inflammation
IC50 (HL-60 cells): 32 µM
alveolar bone loss in mice, restored ([12]; 30 μg/mouse): 0% restored [8]
alveolar bone loss in mice, restored ([12]; 100 μg/mouse): 2% restored [8]
alveolar bone loss in mice, restored ([12]; 500 μg/mouse): 4% restored [8]
suppression of osteoclast differentiation induced by IL-1, LPS, or soluble RANKL (sRANKL) [13]: 70–90%
IC50 [1]: 18 µM
osteoclast differentiation in co-culture system, inhibited [14]: 94% inhibited [8]
osteoclast differentiation in Raw264.7 cultures, inhibited (Raw264.7; 30 μM): 71% inhibited [8]
IC50 (Raw264.7): 16 µM
